# Test system: 435261-313-R-J1-PDC tumor spheroid viability
# Assay: Anticancer human tumor 435261-313-R-J1-PDC patient-derived colon adenocarcinoma cell line growth inhibition [PI3K]
# Settings: spheroids with HUVEC and MSC; for IC50: curve of first compound; for viability, T/C: stronger effect = lower value
# Outline: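 Complex 3D spheroids (cancer cells + endothelial HUVEC + mesenchymal stem cells); drug pairs of targeted agent x inavolisib/alpelisib/duvelisib/copanlisib; half-log series from ~Cmax, max 10 microM if Cmax unknown; endpoint viability.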
# [1] = second compound 0.0316 µM, first compound 0.0316 µM
# [2] = second compound 0.0316 µM, first compound 0.1 µM
# [3] = second compound 0.1 µM, first compound 0.0316 µM
# [4] = second compound 0.1 µM, first compound 0.1 µM
# [5] = second compound 0.316 µM, first compound 0.0316 µM
# [6] = second compound 0.316 µM, first compound 0.1 µM
# [7] = second compound 1 µM, first compound 0.0316 µM
# [8] = second compound 1 µM, first compound 0.1 µM
# [9] = second compound 3.16 µM, first compound 0.0316 µM
# [10] = second compound 3.16 µM, first compound 0.1 µM
# [11] = second compound 10 µM, first compound 0.0316 µM
# [12] = second compound 10 µM, first compound 0.1 µM
# 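Also: spheroids exposed to compounds for 7 days.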
structure (smiles),measurement,setting,value
Cn1nccc1Nc1nccc(-c2ccn(C(CO)c3ccc(Cl)c(F)c3)c(=O)c2)n1 (centres undefined) + CC(Nc1ncnc2nc[nH]c12)c1cc2cccc(Cl)c2c(=O)n1-c1ccccc1,IC50,second compound 0.0316 µM,737 nM
same,IC50,second compound 0.1 µM,416 nM
same,IC50,second compound 0.316 µM,362 nM
same,IC50,second compound 1 µM,424 nM
same,IC50,second compound 3.16 µM,254 nM
same,IC50,second compound 10 µM,68.5 nM
same,"viability, T/C",[1],83.5%
same,"viability, T/C",[2],64.9%
same,"viability, T/C","second compound 0.0316 µM, first compound 0.316 µM",84%
same,"viability, T/C","second compound 0.0316 µM, first compound 1 µM",40.1%
same,"viability, T/C","second compound 0.0316 µM, first compound 3.16 µM",28.7%
same,"viability, T/C","second compound 0.0316 µM, first compound 10 µM",24.9%
same,"viability, T/C",[3],75.4%
same,"viability, T/C",[4],73.4%
same,"viability, T/C","second compound 0.1 µM, first compound 0.316 µM",46.5%
same,"viability, T/C","second compound 0.1 µM, first compound 1 µM",43.6%
same,"viability, T/C","second compound 0.1 µM, first compound 3.16 µM",25.8%
same,"viability, T/C","second compound 0.1 µM, first compound 10 µM",20.6%
same,"viability, T/C",[5],77.9%
same,"viability, T/C",[6],62.7%
same,"viability, T/C","second compound 0.316 µM, first compound 0.316 µM",53.6%
same,"viability, T/C","second compound 0.316 µM, first compound 1 µM",38%
same,"viability, T/C","second compound 0.316 µM, first compound 3.16 µM",28.4%
same,"viability, T/C","second compound 0.316 µM, first compound 10 µM",19.5%
same,"viability, T/C",[7],71.5%
same,"viability, T/C",[8],66.9%
same,"viability, T/C","second compound 1 µM, first compound 0.316 µM",46.3%
same,"viability, T/C","second compound 1 µM, first compound 1 µM",48.1%
same,"viability, T/C","second compound 1 µM, first compound 3.16 µM",26%
same,"viability, T/C","second compound 1 µM, first compound 10 µM",19.2%
same,"viability, T/C",[9],77.1%
same,"viability, T/C",[10],67.7%
same,"viability, T/C","second compound 3.16 µM, first compound 0.316 µM",42.1%
same,"viability, T/C","second compound 3.16 µM, first compound 1 µM",32.8%
same,"viability, T/C","second compound 3.16 µM, first compound 3.16 µM",23.5%
same,"viability, T/C","second compound 3.16 µM, first compound 10 µM",12.6%
same,"viability, T/C",[11],58.1%
same,"viability, T/C",[12],46.8%
same,"viability, T/C","second compound 10 µM, first compound 0.316 µM",28.8%
same,"viability, T/C","second compound 10 µM, first compound 1 µM",18.3%
same,"viability, T/C","second compound 10 µM, first compound 3.16 µM",16.7%
same,"viability, T/C","second compound 10 µM, first compound 10 µM",9.7%
Cn1ncnc1[C@H]1c2n[nH]c(=O)c3cc(F)cc(c23)N[C@@H]1c1ccc(F)cc1 + Cc1nc(NC(=O)N2CCCC2C(N)=O)sc1-c1ccnc(C(C)(C)C(F)(F)F)c1,IC50,second compound 0.0316 µM,> 100 nM
same,IC50,second compound 0.1 µM,> 100 nM
same,IC50,second compound 0.316 µM,6.18 nM
same,IC50,second compound 1 µM,< 0.316 nM
same,IC50,second compound 3.16 µM,< 0.316 nM
same,IC50,second compound 10 µM,< 0.316 nM
same,"viability, T/C","second compound 0.0316 µM, first compound 0.000316 µM",81.6%
same,"viability, T/C","second compound 0.0316 µM, first compound 0.001 µM",65%
same,"viability, T/C","second compound 0.0316 µM, first compound 0.00316 µM",79.8%
same,"viability, T/C","second compound 0.0316 µM, first compound 0.01 µM",77.1%
same,"viability, T/C",[1],79.1%
same,"viability, T/C",[2],66.4%
same,"viability, T/C","second compound 0.1 µM, first compound 0.000316 µM",63%
same,"viability, T/C","second compound 0.1 µM, first compound 0.001 µM",93.9%
same,"viability, T/C","second compound 0.1 µM, first compound 0.00316 µM",65.5%
same,"viability, T/C","second compound 0.1 µM, first compound 0.01 µM",64.8%
same,"viability, T/C",[3],66.4%
same,"viability, T/C",[4],56.3%
same,"viability, T/C","second compound 0.316 µM, first compound 0.000316 µM",35.8%
same,"viability, T/C","second compound 0.316 µM, first compound 0.001 µM",62.8%
same,"viability, T/C","second compound 0.316 µM, first compound 0.00316 µM",49.4%
same,"viability, T/C","second compound 0.316 µM, first compound 0.01 µM",59.8%
same,"viability, T/C",[5],39.4%
same,"viability, T/C",[6],36.6%
same,"viability, T/C","second compound 1 µM, first compound 0.000316 µM",36.5%
same,"viability, T/C","second compound 1 µM, first compound 0.001 µM",29.8%
same,"viability, T/C","second compound 1 µM, first compound 0.00316 µM",24.6%
same,"viability, T/C","second compound 1 µM, first compound 0.01 µM",30.5%
same,"viability, T/C",[7],26.9%
same,"viability, T/C",[8],22.8%
same,"viability, T/C","second compound 3.16 µM, first compound 0.000316 µM",16.4%
same,"viability, T/C","second compound 3.16 µM, first compound 0.001 µM",21.4%
same,"viability, T/C","second compound 3.16 µM, first compound 0.00316 µM",17.5%
same,"viability, T/C","second compound 3.16 µM, first compound 0.01 µM",18.5%
same,"viability, T/C",[9],18.4%
same,"viability, T/C",[10],16.7%
same,"viability, T/C","second compound 10 µM, first compound 0.000316 µM",10.5%
same,"viability, T/C","second compound 10 µM, first compound 0.001 µM",9.23%
same,"viability, T/C","second compound 10 µM, first compound 0.00316 µM",7.91%
same,"viability, T/C","second compound 10 µM, first compound 0.01 µM",9.55%
same,"viability, T/C",[11],9%
same,"viability, T/C",[12],7.58%
